Results from patent US6162920A, “Taxane derivatives having a pyridyl substituted C13 side chain, their preparation and their use as anti-tumor agents” (Schering Aktiensgesellschaft, priority 1996, dated 2000).
Read-outs that look alike come from different tables or passages of the source.

Experiments:
tubulin = assay: photometric measurement of polymerisation of tubulin and depolymerisation of microtubules (350 nm); type: biochemical, bovine; details: photometry, compared with taxol/control; for effect on polymerisation of tubulin: 37° C., tubulin 2 mg protein/ml; for stabilisation of microtubules (effect on depolymerisation): depolymerisation initiated by reducing temperature to 15° C.
Procedure: Bovine brains (each 330 g) are removed from freshly opened cows' heads and are transported in ice-cooled PM4-M buffer. Each brain is freed of the meninges and also of any thrombi and is homogenised with sufficient PM4M buffer in a cooling chamber. The homogenised material from 2 bovine brains is made up to a total volume of 1.0 liter with a total of 500 ml of buffer and is subjected to a first centrifugation (GSA rotor, 15 minutes, 4° C., 6500 g). The supernatant is freed of the sebaceous skin on the surface, filtered over 4 layers of thin muslin, transferred into counter-balanced centrifuge tubes (420 ml) and centrifuged again (Ti 45 rotor, 96000 g, 75 minutes, 4° C.). The supernatant is removed by pipette through the pellet and filtered over 6 layers of thin muslin, and a 50 mM GTP solution in 0.001M bicarbonate/PBS is added to obtain a final concentration of 1 mM. A first polymerisation is carried out in counter-balanced centrifuge tubes for 45 minutes in a water bath warmed to 37° C. The microtubules that have formed are removed by centrifugation (Ti 45 rotor, 27° C., 96000 g, 60 minutes), the supernatant is carefully removed by pipette and the very soft, opalescent pellet is carefully separated from the wall with a spatula. 40 ml of cold PM buffer are then added to the pellet, followed by homogenisation using a small glass mortar and incubation overnight (from 12 to 16 hours) on ice in counter-balanced centrifuge tubes in a cooling chamber. The depolymerisation product is removed by centrifugation in the Ti 60 rotor (4° C.; 96000 g, 60 minutes) and the supernatant is diluted with PM8-M buffer to 1:1, incubated in counter-balanced centrifuge tubes at 37° C. for 45 minutes and centrifuged again (Ti 45 rotor, 27° C., 96000 g, 60 minutes). The supernatant is carefully removed by pipette and the very soft opalescent pellet is taken up in 20 ml of cold PM buffer, homogenised carefully using a small glass mortar and incubated on ice for 30 minutes. The renewed centrifugation (Ti 60 rotor, 4° C., 96000 g, 60 minutes) gives tubulin, the protein content of which is determined according to Pearce or according to a photometric measurement at 280 nm. In the protein determination, dilutions of isolated material to PM buffer of 1:10, 1:20 and 1:40 are used. The PM buffer has own extinction and is deducted as a zero value from the determined protein content. The isolated material is diluted with PM buffer to the intended protein concentration (2 mg/ml).
The measurement of the polymerisation of tubulin and the depolymerisation of microtubules is carried out by photometry. Before the measurement, the tubulin prepared in accordance with Application Example 1 is thawed and degassed for 15 minutes. The photometer is set to a wavelength of 350 nm. 3 μl of solvent/sample, 6 μl of GTP ([…] final.) and 291 μl of tubulin (2 mg protein/ml) are pipetted into the dry and cleaned dishes (10 mm). The sample is carefully stirred (without causing air bubbles), immediately placed in dish carriages and the measuring operation is started at 37° C. Once the polymerisation maximum has been reached (solvent control and taxol 1E-5 mol/l after 20 minutes), the depolymerisation is initiated by reducing the temperature to 15° C. The measuring operation is stopped at the end of the depolymerisation and the course of the change in absorption is represented in graph form as a function of time and temperature (see FIG. 1).

[1] = system: MDA MB 435 mammary carcinoma cells; assay: anti-proliferative effect on tumour cell line, MTT method; type: cell-based; details: for IC50: Homo sapiens; for inhibiting (anti-proliferative) activity compared with taxol, in words: MDA MB 435 cells, MTT, comparison with taxol
Procedure: The addition of the substance in several concentrations is carried out on day 1. The anti-proliferative effect is determined on day 3 using the MTT method. The IC50 values are determined therefrom.

[2] = MDA MB 435 mammary carcinoma cells, 5000 cells/well, substance added day 1, determined day 3, MTT, read-out: MDA-MB 435 cells IC50

IC50 [1, 2] [nM]	Structure (SMILES)	effect on polymerisation of tubulin (tubulin)	stabilisation of microtubules (effect on depolymerisation) (tubulin)	inhibiting (anti-proliferative) activity compared with taxol, in words [1]	IC50 ([1]; MDA-MB-435, read-out: MDA-MB 435 cells IC50) [nM]
2	COC(=O)N[C@@H](c1ccncc1)[C@@H](O)C(=O)O[C@H]1C[C@@]2(O)[C@@H](OC(=O)c3ccccc3)[C@@H]3[C@]4(OC(C)=O)CO[C@@H]4C[C@H](O)[C@@]3(C)C(=O)[C@H](OC(C)=O)C(=C1C)C2(C)C [Compound 1, 3'-desphenyl-3'-(4-pyridyl)-3'-N-debenzoyl-3'-N-methoxycarbonyl-taxol]	inhibits the polymerisation	stabilises the microtubules that have formed distinctly better than taxol	activity similar to that of taxol	–
0.8	COC(=O)N[C@@H](c1ccncc1)[C@@H](O)C(=O)O[C@H]1C[C@@]2(O)[C@@H](OC(=O)c3ccccc3)[C@@H]3[C@]4(OC(C)=O)CO[C@@H]4C[C@@H](O)[C@@]3(C)C(=O)[C@H](OC(C)=O)C(=C1C)C2(C)C [Compound 2, 3'-desphenyl-3'-(4-pyridyl)-3'-N-debenzoyl-3'-N-methoxycarbonyl-7-epi-taxol]	much more pronounced acceleration of the polymerisation of tubulin	stabilises the microtubules that have formed very much better than taxol	significantly improved inhibiting activity compared with taxol	–
8000	COC(=O)N[C@@H](c1ccncc1)[C@@H](O)C(=O)O[C@H]1C[C@@]2(O)[C@@H](O)[C@@H]3[C@]4(OC(C)=O)CO[C@@H]4C[C@H](O)[C@@]3(C)C(=O)[C@H](OC(C)=O)C(=C1C)C2(C)C [Compound 3, 3'-desphenyl-3'-(4-pyridyl)-2,3'-N-bisdebenzoyl-3'-N-methoxycarbonyl-taxol]	much more pronounced acceleration of the polymerisation of tubulin	stabilises the microtubules that have formed better than taxol	–	–
60	COC(=O)N[C@@H](c1ccncc1)[C@@H](O)C(=O)O[C@H]1C[C@@]2(O)[C@@H](OC(=O)c3ccccc3)[C@@H]3[C@]4(OC(C)=O)CO[C@@H]4C[C@H](O)[C@@]3(C)C(=O)[C@H](O)C(=C1C)C2(C)C [Compound 4, 3'-Desphenyl-3'-(4-pyridyl)-3'-N-debenzoyl-3'-N-methoxycarbonyl-10-desacetyl-taxol]	does not differ from taxol in respect of the polymerisation behaviour of tubulin	stabilise the microtubules that have formed substantially better than taxol	–	–
–	CC(=O)O[C@H]1C(=O)[C@@]2(C)[C@H]([C@H](OC(=O)c3ccccc3)[C@]3(O)C[C@H](OC(=O)[C@H](O)[C@@H](NC(=O)c4ccccc4)c4ccccc4)C(C)=C1C3(C)C)[C@]1(OC(C)=O)CO[C@@H]1C[C@@H]2O [Taxol, reference compound]	speeds up the polymerisation of tubulin in comparison with the control	inhibits depolymerisation	–	3
